Assay results: US20240343732A1, “COMPOUNDS FOR DEGRADATION OF CYCLIN-DEPENDENT KINASE 7(CDK7)” (QURIENT CO., LTD., priority 2021, published 2024)

Assays:
CDK1 = molecular target: T1, CDK1 (Homo sapiens, UniProt P06493); assay: Binding assay (FRET, LanthaScreen Eu, Tracer236) for CDK1; conditions: for IC50: read-out: CDK1 IC50 (enzyme binding assay)
T1 construct: His; purchased Invitrogen PR4768C
Method: (§1) Inhibition activity of compound to CDK7 kinase was tested in a binding assay which was applied to the FRET (fluorescence resonance energy transfer) principle from the europium (Eu) donor fluorophore to the acceptor fluorophore on the kinase tracer. Test compounds were made to 1.125 mM of compound solution, and then this compound solution 4-fold serial diluted in 8 steps using an automated liquid handler (JANUS™, PerkinElmer). 80 nL/well of each diluted compound solution was added into the 384-well plate (Greiner, Cat #784075) first and 7.5 ul/well of working solution [5 nM of CDK7/CycH/MNAT1 (Invitrogen, Cat #PR6749B), 4 nM of Biotin anti-His Tag Antibody (Invitrogen, Cat #PV6090), and LanthaScreen® Eu-Streptavidin (Invitrogen, Cat #PV6025)] was added. After mixing the solution well, the same volume with the working solution of Tracer236 (Invitrogen, Cat #PV5592) was added into each well in the plate. The plate was incubated for 60 minutes at room temperature and then all the fluorescence were measured using Envision leader (Perkin Elmer, USA) [Laser as excitation light; […] as the first and the second emission filter]. Data was analysed using XL Fit software.
(§2) All of the synthesized compounds were screened in the above-mentioned assay procedure. To identify the inhibition activity of compounds for other CDKs including CDK1 (Invitrogen, Cat #PR4768C), CDK2 (Invitrogen, Cat #PR4448B) and CDK5 (Invitrogen, Cat #PR8543B) were tested using the same protocol under reasonable concentration of Tracer236 and kinases for each assay. The formula for the assay buffer summarized in below table.

CDK2 = molecular target: T2, CDK2 (Homo sapiens, UniProt P24941); assay: Binding assay (FRET, LanthaScreen Eu, Tracer236) for CDK2; conditions: for IC50: read-out: CDK2 IC50 (enzyme binding assay)
T2 construct: His; purchased Invitrogen PR4448B
Method: as §1, §2

CDK5 = molecular target: T3, CDK5 (Homo sapiens, UniProt Q00535); assay: Binding assay (FRET, LanthaScreen Eu, Tracer236) for CDK5; conditions: for IC50: read-out: CDK5 IC50 (enzyme binding assay)
T3 construct: His; purchased Invitrogen PR8543B
T3 sequence (Q00535 whole entry): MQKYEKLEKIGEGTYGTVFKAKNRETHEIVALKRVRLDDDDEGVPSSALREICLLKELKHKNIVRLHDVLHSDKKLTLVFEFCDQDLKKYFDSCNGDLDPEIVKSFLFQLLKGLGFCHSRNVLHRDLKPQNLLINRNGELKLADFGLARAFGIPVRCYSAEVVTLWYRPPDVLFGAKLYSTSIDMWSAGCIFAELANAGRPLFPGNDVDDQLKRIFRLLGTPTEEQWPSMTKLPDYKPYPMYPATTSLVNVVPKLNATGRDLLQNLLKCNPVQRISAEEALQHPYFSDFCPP
T3 sequence (Q15078 99-307 partner limits assumed): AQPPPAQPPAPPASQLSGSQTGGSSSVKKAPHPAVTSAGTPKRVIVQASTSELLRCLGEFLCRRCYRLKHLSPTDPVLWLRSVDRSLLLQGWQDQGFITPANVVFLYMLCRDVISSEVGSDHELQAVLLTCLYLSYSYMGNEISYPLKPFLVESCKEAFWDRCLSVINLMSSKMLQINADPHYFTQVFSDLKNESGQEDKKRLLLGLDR
Method: as §1, §2

CDK7/CycH/MNAT1 = molecular target: T4, CDK7/CycH/MNAT1 (Homo sapiens, UniProt P50613); assay: Binding assay (FRET, LanthaScreen Eu, Tracer236) for CDK7; conditions: read-out: CDK7 IC50 (enzyme binding assay)
T4 construct: His; purchased Invitrogen PR6749B
T4 sequence (P50613 whole entry): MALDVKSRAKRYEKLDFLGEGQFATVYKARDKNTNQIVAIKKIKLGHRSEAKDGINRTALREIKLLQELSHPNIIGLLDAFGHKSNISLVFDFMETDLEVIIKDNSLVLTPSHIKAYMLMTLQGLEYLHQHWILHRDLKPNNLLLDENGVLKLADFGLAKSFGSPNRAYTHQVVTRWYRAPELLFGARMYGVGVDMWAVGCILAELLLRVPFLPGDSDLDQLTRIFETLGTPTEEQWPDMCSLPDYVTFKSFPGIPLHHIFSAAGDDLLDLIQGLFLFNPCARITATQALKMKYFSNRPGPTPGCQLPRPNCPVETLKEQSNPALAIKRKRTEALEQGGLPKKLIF
T4 sequence (P51946 whole entry partner): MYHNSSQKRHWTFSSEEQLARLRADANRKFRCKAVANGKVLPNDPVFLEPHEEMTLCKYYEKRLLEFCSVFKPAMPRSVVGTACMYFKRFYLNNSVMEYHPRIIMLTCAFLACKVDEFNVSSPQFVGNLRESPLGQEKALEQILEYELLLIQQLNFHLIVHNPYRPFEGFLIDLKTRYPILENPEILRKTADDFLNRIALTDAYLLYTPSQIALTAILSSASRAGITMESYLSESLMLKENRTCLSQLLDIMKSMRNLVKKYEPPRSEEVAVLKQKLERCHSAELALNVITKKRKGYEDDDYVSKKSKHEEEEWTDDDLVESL
T4 sequence (P51948 whole entry partner): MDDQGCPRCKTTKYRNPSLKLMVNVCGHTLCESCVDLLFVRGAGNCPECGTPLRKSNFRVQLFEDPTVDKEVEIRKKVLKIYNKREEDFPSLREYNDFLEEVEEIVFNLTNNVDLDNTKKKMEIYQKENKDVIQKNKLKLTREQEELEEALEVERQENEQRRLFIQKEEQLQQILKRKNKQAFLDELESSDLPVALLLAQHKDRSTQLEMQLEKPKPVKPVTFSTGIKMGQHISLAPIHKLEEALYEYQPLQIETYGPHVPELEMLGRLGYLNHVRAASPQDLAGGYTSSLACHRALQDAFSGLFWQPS
Method: as §1, §2

CDK7 protein = molecular target: T5, CDK7 protein (Homo sapiens, UniProt P50613); assay: Western blot assay for CDK7 protein degradation in A2780 cells; assay type: cell-based; conditions: 24 hours; for DC50: read-out: Compound concentration that caused 50% CDK7 protein degradation in A2780 cells (DC50);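 for all read-outs here: A is DC50 up to 100 nM B is 100 to 1000 nM C is above 1000 nM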
T5 construct: To verify endogenous CDK7 protein degradation; endogenous in cells; host or cells: A2780 (ECACC 93112519)
T5 sequence (P50613 whole entry): as the sequence (P50613 whole entry) above
Method: Human ovarian cancer cell line, A2780 (Cat #93112519) was obtained from ECACC. Cells were grown in RPMI-1640 media (Invitrogen, Cat #22400105) supplemented with 10% FBS (Hyclone, Cat #SH30084.03) and 1% penicillin/streptomycin (Hyclone, Cat #SV30010) and cultured at 37° C., 5% Co2 in a humidified chamber. All cell lines were routinely tested for mycoplasma.
To verify endogenous CDK7 protein degradation upon treatment of CDK7-specific degrader, the western blot assay was conducted a 24 hours' time period. 6×10^5 cells/well of A2780 cells were plated in 6-well plate. After 24 hours, the cells were treated with various concentrations of the compound corresponding range. DMSO solvent without compound served as a control and final DMSO concentration was not to exceed 0.1% of total volume. After 24 hours of incubation at 37° C., 5% Co2 incubator, cells were collected and lysed with 60 ul of lysis buffer. Collected lysates were incubated for 30 min on ice and collect supernatant through centrifugation at 12,000 rpm for 10 min at 4° C. The protein in lysates were quantified with BCA protein quantification kit (Pierce, Cat #23227) following manufacture's protocol. Cell lysates were diluted into 1 ug/ul of concentration with lysis buffer. 20 ug of protein was loaded to each well of 4˜12% Bis-Tris gel (Invitrogen, Cat #NP0336BOX) with MOPS running buffer (Invitrogen, Cat #NP0001). The proteins were transferred from gel to membrane and incubated with primary antibody as followed at 4° C. overnight; CDK7 (CST, Cat #2090S) and β-actin (Santa Cruz, Cat #sc-47778) 1:20,000. The signals were developed and acquired with ImageQuant™ LAS 4000.

T1 sequence (P06493 whole entry): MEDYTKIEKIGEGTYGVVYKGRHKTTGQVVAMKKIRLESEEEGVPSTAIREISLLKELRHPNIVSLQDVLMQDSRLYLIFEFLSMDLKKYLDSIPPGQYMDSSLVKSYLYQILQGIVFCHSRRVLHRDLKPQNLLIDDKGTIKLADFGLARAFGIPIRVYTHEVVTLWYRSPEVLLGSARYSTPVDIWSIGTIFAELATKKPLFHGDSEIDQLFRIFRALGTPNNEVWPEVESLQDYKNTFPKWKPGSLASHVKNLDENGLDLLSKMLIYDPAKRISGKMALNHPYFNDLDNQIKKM
T1 sequence (P14635 whole entry partner): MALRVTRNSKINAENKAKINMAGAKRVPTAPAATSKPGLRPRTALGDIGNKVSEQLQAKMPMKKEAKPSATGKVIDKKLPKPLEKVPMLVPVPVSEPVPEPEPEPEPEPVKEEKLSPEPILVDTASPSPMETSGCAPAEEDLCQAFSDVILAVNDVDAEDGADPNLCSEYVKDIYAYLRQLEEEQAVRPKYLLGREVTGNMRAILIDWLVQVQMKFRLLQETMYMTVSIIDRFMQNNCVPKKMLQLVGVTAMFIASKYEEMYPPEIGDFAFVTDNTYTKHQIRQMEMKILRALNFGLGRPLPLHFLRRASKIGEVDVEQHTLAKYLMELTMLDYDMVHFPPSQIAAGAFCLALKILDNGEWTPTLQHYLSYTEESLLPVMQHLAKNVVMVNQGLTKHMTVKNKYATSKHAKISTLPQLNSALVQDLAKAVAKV

| Structure (SMILES) | CDK1/CDK7: Selectivity of CDK7 inhibition over CDK1 inhibition (CDK1) | IC50 (CDK1) | CDK2/CDK7: Selectivity of CDK7 inhibition over CDK2 inhibition (CDK2) | IC50 (CDK2) | CDK5/CDK7: Selectivity of CDK7 inhibition over CDK5 inhibition (CDK5) | IC50 (CDK5) | IC50 (CDK7/CycH/MNAT1) | Compound concentration that caused 50% CDK7 protein degradation in A2780 cells (DC50, nM) (CDK7 protein) | DC50 (CDK7 protein) |
| --- | --- | --- | --- | --- | --- | --- | --- | --- | --- |
| CC(C)c1cnn2c(NCc3ccccc3-c3nccc4cc(NCC5CCN(CC6CCN(c7ccc8c(c7)C(=O)N(C7CCC(=O)NC7=O)C8=O)CC6)CC5)ccc34)nc(O[C@@H]3CCCNC3)nc12 (some centres unmarked) [Compound 30] | A (A indicates [fold] > 500) | > 1000 nM | B (B indicates 50 < [fold] ≤ 500) | > 1000 nM | B (B indicates 50 < [fold] ≤ 500) | > 1000 nM | ≤ 100 nM | – | ≤ 100 nM |
| CC(C)c1cnn2c(NCc3ccccc3-c3nccc4cc(NCC5CCN(C6CCN(c7ccc8c(c7)C(=O)N(C7CCC(=O)NC7=O)C8=O)CC6)CC5)ccc34)nc(O[C@@H]3CCCNC3)nc12 (some centres unmarked) [Compound 31] | A (A indicates [fold] > 500) | > 1000 nM | A (A indicates [fold] > 500) | > 1000 nM | B (B indicates 50 < [fold] ≤ 500) | > 1000 nM | ≤ 100 nM | – | ≤ 100 nM |
| CC(C)c1cnn2c(NCc3ccccc3-c3nccc4cc(NCC5CCN(CC6CCN(c7ccc8c(c7)C(=O)N(C7CCC(=O)NC7=O)C8=O)CC6)CC5)ccc34)nc(N[C@@H]3CCCNC3)nc12 (some centres unmarked) [Compound 32] | A (A indicates [fold] > 500) | > 1000 nM | A (A indicates [fold] > 500) | > 1000 nM | B (B indicates 50 < [fold] ≤ 500) | > 1000 nM | ≤ 100 nM | – | ≤ 100 nM |
| CC(C)c1cnn2c(NCc3ccccc3-c3nccc4cc(N5CCN(CC6CCN(c7ccc8c(c7)C(=O)N(C7CCC(=O)NC7=O)C8=O)CC6)CC5)ccc34)nc(O[C@@H]3CCCNC3)nc12 (some centres unmarked) [Compound 33] | A (A indicates [fold] > 500) | > 1000 nM | A (A indicates [fold] > 500) | > 1000 nM | B (B indicates 50 < [fold] ≤ 500) | > 1000 nM | ≤ 100 nM | – | ≤ 100 nM |
| CC(C)c1cnn2c(NCc3ccccc3-c3nccc4cc(N5CCC(CN6CCN(c7ccc8c(c7)C(=O)N(C7CCC(=O)NC7=O)C8=O)CC6)CC5)ccc34)nc(O[C@@H]3CCCNC3)nc12 (some centres unmarked) [Compound 34] | A (A indicates [fold] > 500) | > 1000 nM | A (A indicates [fold] > 500) | > 1000 nM | A (A indicates [fold] > 500) | > 1000 nM | ≤ 100 nM | – | ≤ 100 nM |

Second part, the compound after the results:

| CDK1/CDK7: Selectivity of CDK7 inhibition over CDK1 inhibition (CDK1) | IC50 (CDK1) | CDK2/CDK7: Selectivity of CDK7 inhibition over CDK2 inhibition (CDK2) | IC50 (CDK2) | CDK5/CDK7: Selectivity of CDK7 inhibition over CDK5 inhibition (CDK5) | IC50 (CDK5) | IC50 (CDK7/CycH/MNAT1) | Compound concentration that caused 50% CDK7 protein degradation in A2780 cells (DC50, nM) (CDK7 protein) | DC50 (CDK7 protein) | Structure (SMILES) |
| --- | --- | --- | --- | --- | --- | --- | --- | --- | --- |
| A (A indicates [fold] > 500) | > 1000 nM | A (A indicates [fold] > 500) | > 1000 nM | B (B indicates 50 < [fold] ≤ 500) | > 1000 nM | 100 to 1000 nM | B or A | 100 to 1000 nM | Cc1ncsc1-c1ccc(CNC(=O)[C@@H]2C[C@@H](O)CN2C(=O)[C@@H](NC(=O)C2(F)CC2)C(C)(C)C)c(OCCCCCCCCNc2ccc3c(-c4ccccc4CNc4nc(O[C@@H]5CCCNC5)nc5c(C(C)C)cnn45)nccc3c2)c1 [Compound 22] |
| A (A indicates [fold] > 500) | > 1000 nM | A (A indicates [fold] > 500) | > 1000 nM | A (A indicates [fold] > 500) | > 1000 nM | ≤ 100 nM | – | ≤ 100 nM | Cc1cc(C(C(=O)N2C[C@H](O)C[C@H]2C(=O)NCc2ccc(-c3scnc3C)cc2OCCOCCOCCNc2ccc3c(-c4ccccc4CNc4nc(O[C@@H]5CCCNC5)nc5c(C(C)C)cnn45)nccc3c2)C(C)C)on1 (some centres unmarked) [Compound 24] |
| A (A indicates [fold] > 500) | > 1000 nM | A (A indicates [fold] > 500) | > 1000 nM | A (A indicates [fold] > 500) | > 1000 nM | ≤ 100 nM | – | ≤ 100 nM | Cc1ncsc1-c1ccc(CNC(=O)[C@@H]2C[C@@H](O)CN2C(=O)[C@@H](NC(=O)C2(F)CC2)C(C)(C)C)c(OCCN2CCC(N3CCC(CNc4ccc5c(-c6ccccc6CNc6nc(O[C@@H]7CCCNC7)nc7c(C(C)C)cnn67)nccc5c4)CC3)CC2)c1 [Compound 25] |
| A (A indicates [fold] > 500) | > 1000 nM | A (A indicates [fold] > 500) | > 1000 nM | A (A indicates [fold] > 500) | > 1000 nM | ≤ 100 nM | – | > 1000 nM | Cc1cc([C@@H](C(=O)N2C[C@H](O)C[C@H]2C(=O)NCc2ccc(-c3scnc3C)cc2OCCOCCOCCNc2ccc3c(-c4ccccc4CNc4nc(O[C@@H]5CCCNC5)nc5c(C(C)C)cnn45)nccc3c2)C(C)C)on1 [Compound 26] |
| B (B indicates 50 < [fold] ≤ 500) | > 1000 nM | B (B indicates 50 < [fold] ≤ 500) | > 1000 nM | B (B indicates 50 < [fold] ≤ 500) | > 1000 nM | 100 to 1000 nM | – | ≤ 100 nM | Cc1cc([C@H](C(=O)N2C[C@H](O)C[C@H]2C(=O)NCc2ccc(-c3scnc3C)cc2OCCOCCOCCNc2ccc3c(-c4ccccc4CNc4nc(O[C@@H]5CCCNC5)nc5c(C(C)C)cnn45)nccc3c2)C(C)C)on1 [Compound 27] |
| A (A indicates [fold] > 500) | > 1000 nM | A (A indicates [fold] > 500) | > 1000 nM | A (A indicates [fold] > 500) | > 1000 nM | ≤ 100 nM | – | ≤ 100 nM | Cc1ncsc1-c1ccc([C@H](C)NC(=O)[C@@H]2C[C@@H](O)CN2C(=O)[C@@H](NC(=O)CCOCCOCCOCCNc2ccc3c(-c4ccccc4CNc4nc(O[C@@H]5CCCNC5)nc5c(C(C)C)cnn45)nccc3c2)C(C)(C)C)cc1 [Compound 28] |
